Experimental data reported in patent publication US8188287B2, “Piperidyl acrylamide antagonists of CCR2” (Janssen Pharmaceutica N.V., priority 2008, dated 2012).
pIC50: −log10 of the molar value.

What follows are molecules tested against T1, CCR2 (Homo sapiens, UniProt P41597) (assay: MCP-1 Receptor Binding Assay in THP-1 Cells). Conditions: 125I labeled MCP-1 0.5 nM, 2 hours at 30° C., read-out: Inhibition of MCP-1 Binding IC50.
T1 construct: host or cells: THP-1 (human monocytic cell line)
Procedure: MCP-1 Receptor Binding Assay in THP-1 Cells
Human monocytic cell line THP-1 cells were obtained from American Type Culture Collection (Manassas, Va., USA). The THP-1 cells were grown in RPMI-1640 (RPMI: Roswell Park Memorial Institute Medium-cell culture growth media) supplemented with 10% fetal bovine serum in a humidified 5% CO2 atmosphere at 37° C. The cell density was maintained […].
THP-1 (cells were incubated with 0.5 nM ^125I labeled MCP-1 (Perkin-Elmer Life Sciences, Inc. Boston, Mass.) in the presence of varying concentrations of either unlabeled MCP-1 (R & D Systems, Minneapolis, Minn.) or test compound for 2 hours at 30° C. in a 96 well plate. Cells were then harvested onto a filter plate, dried, and 20 μL of Microscint 20 was added to each well. Plates were counted in a TopCount NXT, Microplate Scintillation & Luminescence Counter (Perkin-Elmer Life Sciences, Inc. Boston, Mass.). Blank values (buffer only) were subtracted from all values and drug treated values were compared to vehicle treated values. 1 μM cold MCP-1 was used for nonspecific binding.
Table 1 lists IC50 values for inhibition of MCP-1 binding to CCR2 obtained for test compounds of the invention. Where an IC50 value was not obtained for a particular compound, the percent inhibition is provided at a test concentration of 25 μM. TABLE 1 Inhibition of MCP-1 Binding IC50 (μM)

T1 sequence (P41597 whole entry): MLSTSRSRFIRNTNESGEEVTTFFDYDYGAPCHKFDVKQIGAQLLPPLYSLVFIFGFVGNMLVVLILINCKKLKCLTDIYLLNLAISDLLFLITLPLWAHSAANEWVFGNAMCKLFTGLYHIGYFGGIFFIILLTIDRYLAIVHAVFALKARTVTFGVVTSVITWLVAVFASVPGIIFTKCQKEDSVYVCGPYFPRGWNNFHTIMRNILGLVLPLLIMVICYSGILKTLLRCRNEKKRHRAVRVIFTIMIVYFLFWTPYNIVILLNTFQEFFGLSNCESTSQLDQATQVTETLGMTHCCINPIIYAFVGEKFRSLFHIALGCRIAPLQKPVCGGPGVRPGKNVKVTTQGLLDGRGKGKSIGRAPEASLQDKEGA

Row | pIC50 | SMILES
1 | 5.80 | O=C(/C=C/c1cc(F)c(F)c(F)c1)N1CCC(NN2CCC(c3c[nH]c4ccccc34)CC2)CC1 [Compound 3a, 1-{4-[4-(1H-Indol-3-yl)-piperidin-1-ylamino]-piperidin-1-yl}-3-(3,4,5-trifluoro-phenyl)-propenone]
2 | 6.19 | O=C(O)C(NN1CCC(c2c[nH]c3ccccc23)CC1)C1CCN(C(=O)/C=C/c2cc(F)c(F)c(F)c2)CC1 (racemic) [Compound 5d, [4-(1H-Indol-3-yl)-piperidin-1-ylamino]-{1-[3-(3,4,5-trifluoro-phenyl)-acryloyl]-piperidin-4-yl}-acetic acid]
3 | 5.85 | O=C(/C=C/c1cc(F)c(F)c(F)c1)N1CCC(N(CC(O)CO)N2CCC(c3c[nH]c4ccccc34)CC2)CC1 (stereo not shown) [Compound 4d, 1-(4-{(2,3-Dihydroxy-propyl)-[4-(1H-indol-3-yl)-piperidin-1-yl]-amino}-piperidin-1-yl)-3-(3,4,5-trifluoro-phenyl)-propenone]

Same assay, conditions: test concentration of 25 μM, 125I labeled MCP-1 0.5 nM

Row | Inhibition of MCP-1 Binding Inh (%) | SMILES
4 | 20 | O=C(/C=C/c1cc(F)c(F)c(F)c1)N1CCC(N(Cc2ncc[nH]2)N2CCC(c3c[nH]c4ccccc34)CC2)CC1 [Compound 4e, 1-(4-{(1H-Imidazol-2-ylmethyl)-[4-(1H-indol-3-yl)-piperidin-1-yl]-amino}-piperdin-1-yl)-3-(3,4,5-trifluoro-phenyl)-propenone]
5 | 59 | CN(C1CCN(C(=O)/C=C/c2cc(F)c(F)c(F)c2)CC1)N1CCC(c2c[nH]c3ccccc23)CC1 [Compound 4a, 1-(4-{[4-(1H-Indol-3-yl)-piperidin-1-yl]-methyl-amino}-piperidin-1-yl)-3-(3,4,5-trifluoro-phenyl)-propenone]
6 | 34 | CCN(C1CCN(C(=O)/C=C/c2cc(F)c(F)c(F)c2)CC1)N1CCC(c2c[nH]c3ccccc23)CC1 [Compound 4b, 1-(4-{Ethyl-[4-(1H-indol-3-yl)-piperidin-1-yl]-amino}-piperidin-1-yl)-3-(3,4,5-trifluoro-phenyl)-propenone]
7 | 0 | CC(C)CN(C1CCN(C(=O)/C=C/c2cc(F)c(F)c(F)c2)CC1)N1CCC(c2c[nH]c3ccccc23)CC1 [Compound 4c, 1-(4-{[4-(1H-Indol-3-yl)-piperidin-1-yl]-isobutyl-amino}-piperidin-1-yl)-3-(3,4,5-trifluoro-phenyl)-propenone]
